pIC50, pKi: −log10 of the molar value.
What was measured:
serotonin transporter = target: T1, serotonin transporter (Rattus norvegicus, UniProt P31652); test: 3H-paroxetine displacement, serotonin transporter affinity; type: binding
T1 construct: displace ^3H-paroxetine from male rat frontal cortical membranes; from tissue; host or cells: male rat frontal cortex membranes

human 5-HT1A receptors = target: T2, human 5-HT1A receptors (Homo sapiens, UniProt P08908); test: [3H] 8-OHDPAT displacement, 5-HT1A receptor affinity; type: binding
T2 construct: expressed in transfected cells; host or cells: CHO cells
T2 sequence (P08908 1-422): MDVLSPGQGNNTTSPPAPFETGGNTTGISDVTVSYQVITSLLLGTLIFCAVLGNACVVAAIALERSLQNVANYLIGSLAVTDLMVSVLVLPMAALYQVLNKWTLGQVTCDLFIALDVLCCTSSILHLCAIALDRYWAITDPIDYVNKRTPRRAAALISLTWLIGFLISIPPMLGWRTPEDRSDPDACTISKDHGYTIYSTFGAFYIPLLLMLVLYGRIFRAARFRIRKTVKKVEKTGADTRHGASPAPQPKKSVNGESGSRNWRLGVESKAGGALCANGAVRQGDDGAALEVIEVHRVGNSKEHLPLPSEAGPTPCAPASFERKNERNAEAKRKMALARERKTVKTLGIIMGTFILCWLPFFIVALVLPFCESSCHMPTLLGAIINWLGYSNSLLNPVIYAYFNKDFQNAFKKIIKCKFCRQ
Excerpt: High affinity for the serotonin 5-HT1A receptor was established by testing the claimed compound's ability to displace [^3H] 8-OHDPAT (dipropylaminbtetralin) from the 5-HT1A serotonin receptor following a modification of the procedure of Hall et al., J. Neurochem. 44, 1685 (1985) which utilizes CHO cells stably transfected with human 5-HT1A receptors.

[1] = target: T3, cloned human 5-HT1A receptors (Homo sapiens, UniProt P08908); test: 35S-GTPγS binding assay, 5-HT1A antagonist function; type: biochemical; settings: reversal of 8-OHDPAT effect on 35S-GTPγS binding
T3 construct: expressed in transfected cells
T3 sequence (P08908 1-422): T2 sequence (P08908 1-422)
Description: Antagonist activity at 5-HT1A receptors was established by using a ^35S-GTPγS binding assay similar to that used by Lazareno and Birdsall (Br. J. Pharmacol. 109: 1120, 1993), in which the test compound's ability to affect the binding of ^35S-GTPγS to membranes containing cloned human 5-HT1A receptors was determined. Agonists produce an increase in binding whereas antagonists produce no increase but rather reverse the effects of the standard agonist 8-OHDPAT. The test compound's maximum inhibitory effect is represented as the Imax, while its potency is defined by the IC50.

T1 sequence (P31652 whole entry): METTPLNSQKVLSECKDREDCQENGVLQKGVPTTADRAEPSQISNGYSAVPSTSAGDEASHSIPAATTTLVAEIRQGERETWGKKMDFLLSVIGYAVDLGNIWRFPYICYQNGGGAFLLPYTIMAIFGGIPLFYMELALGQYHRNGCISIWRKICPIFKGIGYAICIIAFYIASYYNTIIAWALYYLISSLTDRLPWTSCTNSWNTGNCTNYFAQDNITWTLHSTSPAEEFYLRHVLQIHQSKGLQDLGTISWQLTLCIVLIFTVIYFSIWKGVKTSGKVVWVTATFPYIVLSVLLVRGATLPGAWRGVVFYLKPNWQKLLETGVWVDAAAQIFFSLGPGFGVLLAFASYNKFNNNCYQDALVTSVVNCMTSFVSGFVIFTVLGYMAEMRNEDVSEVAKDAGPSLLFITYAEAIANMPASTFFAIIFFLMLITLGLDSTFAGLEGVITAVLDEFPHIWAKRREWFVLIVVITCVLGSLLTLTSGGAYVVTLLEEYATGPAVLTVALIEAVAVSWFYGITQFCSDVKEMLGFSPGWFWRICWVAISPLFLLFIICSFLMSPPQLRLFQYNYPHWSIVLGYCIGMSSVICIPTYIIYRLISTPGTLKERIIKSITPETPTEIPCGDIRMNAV

`CCc1cc2c3c(ccc2[nH]1)OCC(CN1CC=C(c2c[nH]c4ccccc24)CC1)O3` (stereo not shown) (hydrate or solvate) [Example 4, 8-Ethyl-2-[(4-(1H-indol-3-yl)-3,6-dihydropyridin-1(2H)-yl)methyl]-2,3-dihydro-7H-[1,4]dioxino[2,3-e]indole] showed a melting point of 175 to 177 °C.
Molecule `CCc1cc2c3c(ccc2[nH]1)OCC(CN1CC=C(c2c[nH]c4ccc(F)cc24)CC1)O3` (stereo not shown) (hydrate or solvate) [Example 5, 8-Ethyl-2-[(4-(5-fluoro-1H-indol-3-yl)-3,6-dihydropyridin-1(2H)-yl)methyl]2,3-dihydro-7H-[1,4]dioxino[2,3-e]indole] has a melting point of 81 to 82 °C.
For `Cc1cc2c3c(ccc2[nH]1)OCC(CN1CC=C(c2c[nH]c4ccccc24)CC1)O3` (stereo not shown) [Example 1, 2-[(4-(1H-Indol-3-yl)-3,6-dihydropyridin-1(2H)-yl)methyl]-8-methyl-2,3-dihydro-7H-[1,4]dioxino[2,3-e]indole], the pKi (serotonin transporter) was 8.46, the pKi (human 5-HT1A receptors) was 9.35 and the “5-HT1A Function Imax (maximum inhibitory effect)” value [1] was 100. It also gave a pIC50 [1] of 7.80 and a melting point of 212 to 215 °C.
For `C1=C(c2c[nH]c3ccccc23)CCN(CC2COc3ccc4[nH]ccc4c3O2)C1` (stereo not shown) [Example 2, 2-[(4-(1H-Indol-3-yl)-3,6-dihydropyridin-1(2H)-yl)methyl]-2,3-dihydro-7H-[1,4]dioxino[2,3-e]indole], the pKi (serotonin transporter) was 9.11, the pKi (human 5-HT1A receptors) was 8.81 and the “5-HT1A Function Imax (maximum inhibitory effect)” value [1] was 52. The pIC50 [1] was 7.64 and the melting point was 126 °C.
For `Fc1ccc2[nH]cc(C3=CCN(CC4COc5ccc6[nH]ccc6c5O4)CC3)c2c1` (stereo not shown) [Example 3, 2-{[4-(5-Fluoro-1H-indol-3-yl)-3,6-dihydropyridin-1(2H)-yl]methyl}-2,3-dihydro-7H-[1,4]dioxino[2,3-e]indole], the pKi (serotonin transporter) was 8.91, the pKi (human 5-HT1A receptors) was 8.61 and the “5-HT1A Function Imax (maximum inhibitory effect)” value [1] was 100. It also gave a pIC50 [1] of 7.95 and a melting point of 112 °C.
In the case of `CCc1cc2c3c(ccc2[nH]1)OCC(CN1CC=C(c2c[nH]c4ccccc24)CC1)O3` (stereo not shown) [Example 4, 8-Ethyl-2-[(4-(1H-indol-3-yl)-3,6-dihydropyridin-1(2H)-yl)methyl]-2,3-dihydro-7H-[1,4]dioxino[2,3-e]indole], the pKi (serotonin transporter) was 8.00, the pKi (human 5-HT1A receptors) was 8.34 and the “5-HT1A Function Imax (maximum inhibitory effect)” value [1] was 78. For the same molecule, the pIC50 [1] was 7.14.
In the case of `CCc1cc2c3c(ccc2[nH]1)OCC(CN1CC=C(c2c[nH]c4ccc(F)cc24)CC1)O3` (stereo not shown) [Example 5, 8-Ethyl-2-[(4-(5-fluoro-1H-indol-3-yl)-3,6-dihydropyridin-1(2H)-yl)methyl]2,3-dihydro-7H-[1,4]dioxino[2,3-e]indole], the pKi (serotonin transporter) was 8.00, the pKi (human 5-HT1A receptors) was 7.58 and the “5-HT1A Function Imax (maximum inhibitory effect)” value [1] was 98. For the same molecule, the pIC50 [1] was 6.58.
